pIC50: −log10 of the molar value. Read-outs that look alike come from different tables or passages of the source.
Key:
[1] = test system: DOHH-2; experiment: CellTiterGlo viability, DLBCL cell line; type: cell-based; settings: single agent, 2 days; for pIC50: read-out: Abs IC50
Protocol: (§3) In addition, all media contained penicillin (100 IU/ml), streptomycin (100 μg/ml) and L-glutamine (2 mM). Unless otherwise mentioned, culture media and supplements were from Amimed/Bioconcept (Allschwil, Switzerland).
(§4) Cell lines were cultured at 37° C. in a humidified atmosphere containing 5% CO2 and expanded in T-75 flasks. In all cases cells were thawed from frozen stocks, expanded through ≥1 passage using appropriate dilutions, counted and assessed for viability using a CASY cell counter (Omni Life Science, Bremen, Germany) prior to plating 25 ul/well at the densities indicated in Table 1 into 384-well plates (Corning). All cell lines were determined to be free of mycoplasma contamination by PCR assay performed at Idexx Radii (Columbia, Mo., USA) and misidentification ruled out by assessment of a panel of 48 Small Nucleotide Polymorphisms (SNPs) at Asuragen (Austin, Tex., USA) or in-house.
(§5) Stock solutions of compounds were prepared at a concentration of 10 mM in DMSO (Sigma) and stored at −20° C. Where necessary to afford a full dose-response curve, the stock solutions were pre-diluted in DMSO to 1′000-fold the desired start concentration (see Table 2). On the day after cell seeding, eight 2.5-fold serial dilutions of each compound were dispensed, either individually or in all possible permutations in a checkerboard fashion, directly into the cell assay plates using a non-contact 300D Digital Dispenser (ILCAN, Mannedorf, Switzerland) as outlined in FIG. 4. The final concentration of DMSO was 0.2% in all wells.
(§6) Effects of the single agents as well as their checkerboard combinations on cell viability were assessed after 2 days of incubation at 37° C./5% CO2 by quantification of cellular ATP levels using CellTiterGlo (Promega, Madison, Wis., USA) at 25 μL reagent/well and n=2 replicate plates per condition. Luminescence was quantified on a M1000 multipurpose platereader (ILCAN, Mannedorf, Switzerland). The number/viability of cells at time of compound addition was likewise assessed and used to assess the degree of the population doubling time of a particular cell line.
(§7) Single agent IC50s were calculated using standard four-parametric curve fitting. […] All calculations were performed using the Combination Analysis Module in-house software. IC50 are defined as the compound concentration at which the CTG signal is reduced to 50% of that measured for the vehicle (DMSO) control.

[2] = test system: JM1; experiment: CellTiterGlo viability, DLBCL cell line; type: cell-based; settings: single agent, 2 days; for pIC50: read-out: Abs IC50
Protocol: as §3, §4, §5, §6, §7

[3] = test system: KARPAS-422; experiment: CellTiterGlo viability, DLBCL cell line; type: cell-based; settings: single agent, 2 days; for pIC50: read-out: Abs IC50
Protocol: as §3
(§8) Cell lines were cultured at 37° C. in a humidified atmosphere containing 5% CO2 and expanded in T-75 flasks. In all cases cells were thawed from frozen stocks, expanded through ≥1 passage using appropriate dilutions, counted and assessed for viability using a CASY cell counter (Omni Life Science, Bremen, Germany) prior to plating 25 ul/well at the densities indicated in Table 1 into 384-well plates (Corning).
as §5, §6
(§9) Single agent IC50s were calculated using standard four-parametric curve fitting. […] IC50 are defined as the compound concentration at which the CTG signal is reduced to 50% of that measured for the vehicle (DMSO) control.

[4] = test system: OCI-LY-19; experiment: CellTiterGlo viability, DLBCL cell line; type: cell-based; settings: single agent, 2 days; for pIC50: read-out: Abs IC50
Protocol: as §3, §8, §5, §6, §9

[5] = test system: RL; experiment: CellTiterGlo viability, DLBCL cell line; type: cell-based; settings: single agent, 2 days; for pIC50: read-out: Abs IC50
Protocol: as §3, §8, §5, §6, §9

[6] = test system: SU-DHL-4; experiment: CellTiterGlo viability, DLBCL cell line; type: cell-based; settings: single agent, 2 days; for pIC50: read-out: Abs IC50
Protocol: as §3, §4, §5, §6, §9

[7] = test system: WSU-DLCL2; experiment: CellTiterGlo viability, DLBCL cell line; type: cell-based; settings: single agent, 2 days; for pIC50: read-out: Abs IC50
Protocol: as §3, §4, §5, §6, §9

[8] = test system: Kelly; experiment: CellTiterGlo viability, neuroblastoma cell line; type: cell-based; settings: single agent, 2 days
Protocol: (§1) In addition, all media contained penicillin (100 IU/ml), streptomycin (100 μg/ml) and L-glutamine (2 mM). […] In all cases cells were thawed from frozen stocks, expanded through ≥1 passage using appropriate dilutions, counted and assessed for viability using a CASY cell counter prior to plating 150 ul/well at the densities indicated in Table 6 into 96-well plates. All cell lines were determined to be free of mycoplasma contamination in-house. Stock solutions of compounds were prepared at a concentration of 5 mM in DMSO and stored at −20° C. In order to analyse the activity of the compounds as single agents, cells were seeded and treated with nine 3.16-fold serial dilutions of each compound dispensed individually directly into the cell assay plates. […] Two independent experiments, each one performed in duplicates were performed. […]. Luminescence was quantified on a multipurpose platereader. Single agent IC50s were calculated using standard four-parametric curve fitting. […] Identical experiments were performed to assess potential synergistic interactions between compound combinations. […] All calculations were performed using Chalice TM Bioinformatics Software.

[9] = test system: LAN-6; experiment: CellTiterGlo viability, neuroblastoma cell line; type: cell-based; settings: for Max Inh (Compound 3: Mean of Max Inh) / pIC50: LAN-6, single agent, 3 days
Protocol: as §1

[10] = test system: NB1; experiment: CellTiterGlo viability, neuroblastoma cell line; type: cell-based; settings: single agent, 2 days
Protocol: as §1

[11] = test system: NBL-S; experiment: CellTiterGlo viability, neuroblastoma cell line; type: cell-based; settings: single agent, 3 days
Protocol: as §1

[12] = test system: SH-SY5Y; experiment: CellTiterGlo viability, neuroblastoma cell line; type: cell-based; settings: single agent, 2 days
Protocol: as §1

[13] = test system: SIMA; experiment: CellTiterGlo viability, neuroblastoma cell line; type: cell-based; settings: single agent, 3 days
Protocol: as §1

[14] = test system: SK-N-AS; experiment: CellTiterGlo viability, neuroblastoma cell line; type: cell-based; settings: single agent, 3 days
Protocol: as §1

[15] = test system: SK-N-BE; experiment: CellTiterGlo viability, neuroblastoma cell line; type: cell-based; settings: single agent, 3 days
Protocol: as §1

[16] = test system: SK-N-DZ; experiment: CellTiterGlo viability, neuroblastoma cell line; type: cell-based; settings: single agent, 3 days
Protocol: as §1

[17] = test system: SK-N-FI; experiment: CellTiterGlo viability, neuroblastoma cell line; type: cell-based; settings: single agent, 2 days
Protocol: as §1

[18] = test system: SK-N-SH; experiment: CellTiterGlo viability, neuroblastoma cell line; type: cell-based; settings: single agent, 2 days
Protocol: as §1

[19] = test system: JVM-2; experiment: CellTiterGlo viability, Mantle Cell Lymphoma cell line; type: cell-based; settings: single agent, 2 days
Protocol: (§2) In addition, all media contained penicillin (100 IU/ml), streptomycin (100 μg/ml) and L-glutamine (2 mM). […] All cell lines were determined to be free of mycoplasma contamination in-house. Stock solutions of compounds were prepared at a concentration of 5 mM in DMSO and stored at −20° C. In order to analyse the activity of the compounds as single agents or in combination, cells were seeded and treated with seven or eight 3.16-fold serial dilutions of each compound dispensed, either individually or in all possible permutations in a checkerboard fashion, directly into the cell assay plates. […] All the conditions were tested in triplicates. Luminescence was quantified on a multipurpose plate reader. […] All calculations were performed using Chalice™ Bioinformatics Software available in Horizon website. Single agent IC50s were calculated using standard four-parametric curve fitting.

[20] = test system: Jeko; experiment: as above; type: cell-based; settings: single agent, 2 days
Protocol: as §2

[21] = test system: Mino; experiment: as above; type: cell-based; settings: single agent, 2 days
Protocol: as §2

[22] = test system: REC-1; experiment: as above; type: cell-based; settings: single agent, 2 days
Protocol: as §2

[23] = test system: Z-138; experiment: as above; type: cell-based; settings: single agent, 2 days
Protocol: as §2

[24] = Stability of dosing formulations; type: physicochemical; settings: 4° C; Compound 1, HCl in 5% Ethanol, 20% Dexolve-7 (iv) or PEG300/EtOH/water (40/10/50) (po); ABT-199 in PEG300/EtOH/water (40/10/50); Compound 3 in Liposomal formulation
Protocol: Compound 1, HCl was formulated in 5% Ethanol, 20% Dexolve-7 as a solution for intravenous administration or formulated in PEG300/EtOH/water (40/10/50) for oral administration. ABT-199 was formulated in PEG300/EtOH/water (40/10/50) for oral administration. […] Vehicle and compound dosing solutions were prepared as needed. All animals were dosed at 10 mL/kg with Compound 1 (expressed as the free base) or ABT-199, or 5 mL/kg with Compound 3.

In the case of `Cl.O=C(c1cc(-c2cc3c(cc2C(=O)N2Cc4ccccc4C[C@H]2CN2CCOCC2)OCO3)n2c1CCCC2)N(c1ccccc1)c1ccc(O)cc1` [Compound 1, HCl, N-(4-hydroxyphenyl)-3-{6-[((3S)-3-(4-morpholinylmethyl)-3,4-dihydro-2(1H)-isoquinolinyl)carbonyl]-1,3-benzodioxol-5-yl}-N-phenyl-5,6,7,8-tetrahydro-1-indolizine carboxamide hydrochloride], the pIC50 ([1]; Homo sapiens, 48 h) was 6.81, the “Max Inh” value [1] was 101.9% and the pIC50 ([2]; Homo sapiens, 48 h) was 6.16. The “Max Inh” value [2] was 99.1%, the pIC50 ([3]; Homo sapiens, 48 h) was 5.66 and the “Max Inh” value [3] was 90.9%. The pIC50 ([4]; Homo sapiens, OCI-LY19, 48 h) was 7.05, the “Max Inh” value [4] was 100.1% and the pIC50 ([5]; Homo sapiens, 48 h) was 6.55. The “Max Inh” value [5] was 99.0%, the pIC50 ([6]; Homo sapiens, 48 h) was 6.07 and the “Max Inh” value [6] was 96.9%. The pIC50 ([7]; Homo sapiens, WSUDLCL2, 48 h) was 5.99, the “Max Inh” value [7] was 99.3% and the pIC50 ([8]; 48 h) was < 5.52. The “Max Inh (Compound 3: Mean of Max Inh)” value [8] was 27%, the “Max Inh (Compound 3: Mean of Max Inh)” value [9] was 26% and the pIC50 ([9]; Neuroblastoma cell, 72 h) was < 5.70. The inhibition at 0.63 µM ([9]; Neuroblastoma cell, LAN-6 cells, each compound at 630 nM (FIG. 10, upper left panel), read-out: growth inhibition) was 0%, the pIC50 ([10]; Homo sapiens, 48 h) was < 5.52 and the “Max Inh (Compound 3: Mean of Max Inh)” value [10] was 11%. For the same compound, the pIC50 ([11]; Neuroblastoma cell, 72 h) was < 5.70, the “Max Inh (Compound 3: Mean of Max Inh)” value [11] was 10% and the pIC50 ([12]; Homo sapiens, 48 h) was < 5.52. For the same compound, the “Max Inh (Compound 3: Mean of Max Inh)” value [12] was 10%, the pIC50 ([13]; Neuroblastoma cell, 72 h) was < 5.70 and the “Max Inh (Compound 3: Mean of Max Inh)” value [13] was 48.5%. For the same compound, the pIC50 ([14]; Homo sapiens, 72 h) was < 6.00, the “Max Inh (Compound 3: Mean of Max Inh)” value [14] was 9% and the pIC50 ([15]; Neuroblastoma cell, 72 h) was < 5.70. For the same compound, the “Max Inh (Compound 3: Mean of Max Inh)” value [15] was 27%, the pIC50 ([16]; Homo sapiens, 72 h) was < 5.70 and the “Max Inh (Compound 3: Mean of Max Inh)” value [16] was 10%. For the same compound, the pIC50 ([17]; Homo sapiens, 48 h) was < 5.52, the “Max Inh (Compound 3: Mean of Max Inh)” value [17] was 6% and the pIC50 ([18]; Homo sapiens, 48 h) was < 5.52. The “Max Inh (Compound 3: Mean of Max Inh)” value [18] was 15%, the pIC50 ([19]; Homo sapiens, 48 h) was < 5.30 and the “Max Inh” value [19] was 38.0%. The pIC50 ([20]; 48 h) was < 5.30, the “Max Inh” value [20] was 35.0% and the pIC50 ([21]; Homo sapiens, 48 h) was 7.04. For the same compound, the “Max Inh” value [21] was 91.0%, the pIC50 ([22]; Homo sapiens, Rec1, 48 h) was 6.15 and the “Max Inh” value [22] was 78.0%. For the same compound, the pIC50 ([23]; Homo sapiens, 48 h) was < 5.30, the “Max Inh” value [23] was 25.0% and the “stability of dosing formulation” value [24] was “stable for at least one week at 4 °C”.
For `COc1ccccc1-c1nccc(COc2ccccc2C[C@@H](Oc2ncnc3sc(-c4ccc(F)cc4)c(-c4ccc(OCCN5CCN(C)CC5)c(Cl)c4C)c23)C(=O)O)n1` [Compound 3, (2R)-2-{[(5Sa)-5-{3-chloro-2-methyl-4-[2-(4-methylpiperazin-1-yl)ethoxy]phenyl}-6-(4-fluorophenyl)thieno[2,3-d]pyrimidin-4-yl]oxy}-3-(2-{[2-(2-methoxyphenyl)pyrimidin-4-yl]methoxy}phenyl)propanoic acid], the “Max Inh” value [1] was 98.3%, the pIC50 [1] was 8.91 and the “Max Inh” value [2] was 99.7%. For the same compound, the pIC50 [2] was 7.23, the “Max Inh” value [3] was 98.3% and the pIC50 [3] was 8.67. For the same compound, the “Max Inh” value [4] was 98.5%, the pIC50 [4] was 7.22 and the “Max Inh” value [5] was 95.4%. For the same compound, the pIC50 [5] was 5.52, the “Max Inh” value [6] was 99.5% and the pIC50 [6] was 7.75. For the same compound, the “Max Inh” value [7] was 99.0%, the pIC50 [7] was 8.10 and the pIC50 [8] was 7.51. For the same compound, the “Max Inh (Compound 3: Mean of Max Inh)” value [8] was 99%, the pIC50 [9] was < 5.70 and the “Max Inh (Compound 3: Mean of Max Inh)” value [9] was 17.5%. The growth inhibition ([9]; LAN-6 cells, each compound at 630 nM (FIG. 10, upper left panel)) was 12%, the pIC50 [10] was 6.91 and the “Max Inh (Compound 3: Mean of Max Inh)” value [10] was 99%. For the same compound, the pIC50 [11] was < 5.70, the “Max Inh (Compound 3: Mean of Max Inh)” value [11] was 13% and the pIC50 [12] was < 5.52. For the same compound, the “Max Inh (Compound 3: Mean of Max Inh)” value [12] was 24%, the pIC50 [13] was < 5.70 and the “Max Inh (Compound 3: Mean of Max Inh)” value [13] was 0%. The pIC50 [14] was 6.59, the “Max Inh (Compound 3: Mean of Max Inh)” value [14] was 84% and the pIC50 [15] was < 5.70. For the same compound, the “Max Inh (Compound 3: Mean of Max Inh)” value [15] was 27%, the pIC50 [16] was < 5.70 and the “Max Inh (Compound 3: Mean of Max Inh)” value [16] was 2.5%. For the same compound, the pIC50 [17] was < 5.52, the “Max Inh (Compound 3: Mean of Max Inh)” value [17] was 33% and the pIC50 [18] was < 5.52. The “Max Inh (Compound 3: Mean of Max Inh)” value [18] was 40%, the pIC50 [19] was < 5.70 and the “Max Inh” value [19] was 19.0%. The pIC50 [20] was 7.64, the “Max Inh” value [20] was 100.0% and the pIC50 [21] was 8.10. For the same compound, the “Max Inh” value [21] was 100.0%, the pIC50 [22] was 7.11 and the “Max Inh” value [22] was 99.0%. For the same compound, the pIC50 [23] was 6.35, the “Max Inh” value [23] was 96.0% and the “stability of dosing formulation” value [24] was “stable for three weeks at 4 °C”.
